Test results published in patent US20250282760A1 (Merck Sharp & Dohme LLC, priority 2022, published 2025).
pIC50: −log10 of the molar value.

Target: T1, human OX2R (Homo sapiens, UniProt O43614)
T1 construct: expressed in transfected cells; host or cells: Chinese hamster ovary (CHO) cells, kept under G418 selection
T1 sequence (O43614 1-444): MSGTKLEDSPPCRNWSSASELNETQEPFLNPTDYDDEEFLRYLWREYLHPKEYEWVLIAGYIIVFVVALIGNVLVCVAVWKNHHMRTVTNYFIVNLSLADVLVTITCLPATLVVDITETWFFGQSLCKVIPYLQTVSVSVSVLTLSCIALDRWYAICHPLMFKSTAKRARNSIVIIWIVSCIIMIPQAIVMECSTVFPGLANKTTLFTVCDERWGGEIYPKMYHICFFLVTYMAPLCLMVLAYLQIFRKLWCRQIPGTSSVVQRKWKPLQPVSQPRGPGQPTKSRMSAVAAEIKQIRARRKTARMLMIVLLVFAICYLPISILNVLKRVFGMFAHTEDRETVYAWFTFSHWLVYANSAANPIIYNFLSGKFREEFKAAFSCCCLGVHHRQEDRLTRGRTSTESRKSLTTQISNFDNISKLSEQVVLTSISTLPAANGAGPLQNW
Assay: IPOne (IP-1 accumulation) assay of orexin receptor agonist activity in CHO cells expressing human OX2R
Type: cell-based
Details: for pIC50: CHO cells expressing human OX2R, IP-One assay, 2 hours incubation, four parameter logistic fit, read-out: hOX2R_IP IC50; for Emax: CHO, percent activity at maximum tested concentration, relative to reference compound at 1 uM (100% activity) for human OX2R
From the text: The utility of the compounds in accordance with the present invention as orexin receptor OX1R and/or OX2R agonists may be readily determined without undue experimentation by methodology well known in the art. Both the OX1R and/or OX2R G-coupled protein receptors (GPCRs) couple through the Gαq signaling pathway, which ultimately promotes calcium mobilization via inositol triphosphate (IP3) production. […] The utility of the compounds in accordance with the present invention as orexin receptor OX1R and/or OX2R agonists may be determined utilizing this assay.
In a typical experiment, the OX1 and OX2 receptor agonist activity is determined in accordance with the following general experimental method. Chinese hamster ovary (CHO) cells expressing human OX1R and/or the human OX2R were grown in Iscove's modified DMEM containing glutaMAX™, 1% G418, 100 U/mL penicillin, 100 μg/mL streptomycin and 10% heat-inactivated qualified fetal bovine serum (FBS). […] During this incubation, IP-one detection reagents were prepared (38:1:1 lysis buffer:D2:AB-cryptate reagents).
For each compound, data were fit to a four parameter logistic fit (ActivityBase software) and the EC50 was reported as the inflection point of the resulting curve. Percent effect for each test compound was determined as the percentage of sample raw value/mean max effect, where the mean max effect was derived from the mean raw value of 32 control wells per assay plate (using Orexin A (cat #003-30) at 1 μM for human OX1R and a reference compound at 1 uM with 100% activity previously established by comparison to Orexin A for human OX2R). The intrinsic orexin receptor agonist activity of a compound which may be used in the present invention may be determined by these assays.

SMILES | pIC50 | Emax [%]
CC(=O)N1CCN(S(=O)(=O)c2ccccc2)CC1C(=O)NCc1ccc2ccccc2c1 (stereo not drawn) [Example 11, 1-acetyl-N-(naphthalen-2-ylmethyl)-4-(phenylsulfonyl)piperazine-2-carboxamide] | 4.46 | 81.6
CC(C)C(=O)N1C(C)CN(S(=O)(=O)c2ccccc2)CC1C(=O)NCc1ccc(-c2cccnc2)cc1 (stereo not drawn) [Example 42-2, 1-isobutyryl-6-methyl-4-(phenylsulfonyl)-N-(4-(pyridin-3-yl)benzyl)piperazine-2-carboxamide] | 5.99 | 20.6
CC(C)C(=O)N1C(C)CN(S(=O)(=O)c2ccccc2)CC1C(=O)NCc1ccc(-c2ccncc2)cc1 (stereo not drawn) [Example 42-3, 1-isobutyryl-6-methyl-4-(phenylsulfonyl)-N-(4-(pyridin-4-yl)benzyl)piperazine-2-carboxamide] | 5.99 | 4.39
CC(C)C(=O)N1C(C(=O)NCc2ccc(-c3ccco3)cc2)CN(S(=O)(=O)c2ccccc2)CC1(C)C (stereo not drawn) [Example 83, N-(4-(furan-2-yl)benzyl)-1-isobutyryl-6,6-dimethyl-4-(phenylsulfonyl)piperazine-2-carboxamide] | 7.03 | 89.9
Cc1ccc(S(=O)(=O)N2CCN(C(=O)c3cccs3)C(C(=O)NCc3ccc4ccccc4c3)C2)cc1 (stereo not drawn) [Example 89-1, N-(naphthalen-2-ylmethyl)-1-(thiophene-2-carbonyl)-4-tosylpiperazine-2-carboxamide] | 5.24 | 60.1
Cc1cccc(S(=O)(=O)N2CCN(C(=O)c3cccs3)C(C(=O)NCc3ccc4ccccc4c3)C2)c1 (stereo not drawn) [Example 89-2, 4-[(3-methylphenyl)sulfonyl]-N-[(naphthalen-2-yl)methyl]-1-(thiophene-2-carbonyl)piperazine-2-carboxamide] | 5.57 | 92
Cc1ccccc1S(=O)(=O)N1CCN(C(=O)c2cccs2)C(C(=O)NCc2ccc3ccccc3c2)C1 (stereo not drawn) [Example 89-3, 4-[(2-methylphenyl)sulfonyl]-N-[(naphthalen-2-yl)methyl]-1-(thiophene-2-carbonyl)piperazine-2-carboxamide] | 5.18 | 82.7
O=C(NCc1ccc2ccccc2c1)C1CN(S(=O)(=O)c2ccccc2Cl)CCN1C(=O)c1cccs1 (stereo not drawn) [Example 89-4, 4-[(2-chlorophenyl)sulfonyl]-N-[(naphthalen-2-yl)methyl]-1-(thiophene-2-carbonyl)piperazine-2-carboxamide] | 5.28 | 75.5
N#Cc1ccc(S(=O)(=O)N2CCN(C(=O)c3cccs3)C(C(=O)NCc3ccc4ccccc4c3)C2)cc1 (stereo not drawn) [Example 89-5, 4-[(4-cyanophenyl)sulfonyl]-N-[(naphthalen-2-yl)methyl]-1-(thiophene-2-carbonyl)piperazine-2-carboxamide] | 4.00 | 23.1
N#Cc1cccc(S(=O)(=O)N2CCN(C(=O)c3cccs3)C(C(=O)NCc3ccc4ccccc4c3)C2)c1 (stereo not drawn) [Example 89-6, 4-[(3-cyanophenyl)sulfonyl]-N-[(naphthalen-2-yl)methyl]-1-(thiophene-2-carbonyl)piperazine-2-carboxamide] | 5.22 | 67.5
COc1ccc(S(=O)(=O)N2CCN(C(=O)c3cccs3)C(C(=O)NCc3ccc4ccccc4c3)C2)cc1 (stereo not drawn) [Example 89-7, 4-[(4-methoxyphenyl)sulfonyl]-N-[(naphthalen-2-yl)methyl]-1-(thiophene-2-carbonyl)piperazine-2-carboxamide] | 5.58 | 99.7
COc1cccc(S(=O)(=O)N2CCN(C(=O)c3cccs3)C(C(=O)NCc3ccc4ccccc4c3)C2)c1 (stereo not drawn) [Example 89-8, 4-[(3-methoxyphenyl)sulfonyl]-N-[(naphthalen-2-yl)methyl]-1-(thiophene-2-carbonyl)piperazine-2-carboxamide] | 5.06 | 75.9
O=C(NCc1ccc2ccccc2c1)C1CN(S(=O)(=O)c2ccc(F)cc2)CCN1C(=O)c1cccs1 (stereo not drawn) [Example 89-9, 4-[(4-fluorophenyl)sulfonyl]-N-[(naphthalen-2-yl)methyl]-1-(thiophene-2-carbonyl)piperazine-2-carboxamide] | 5.26 | 89.6
O=C(NCc1ccc2ccccc2c1)C1CN(S(=O)(=O)c2cccc(F)c2)CCN1C(=O)c1cccs1 (stereo not drawn) [Example 89-10, 4-[(3-fluorophenyl)sulfonyl]-N-[(naphthalen-2-yl)methyl]-1-(thiophene-2-carbonyl)piperazine-2-carboxamide] | 5.28 | 83.6
O=C(NCc1ccc2ccccc2c1)C1CN(S(=O)(=O)c2ccccc2F)CCN1C(=O)c1cccs1 (stereo not drawn) [Example 89-11, 4-[(2-fluorophenyl)sulfonyl]-N-[(naphthalen-2-yl)methyl]-1-(thiophene-2-carbonyl)piperazine-2-carboxamide] | 5.30 | 94.5
